Results reported in patent US20240254119A1 (THIRD HARMONIC BIO, INC., priority 2022, published 2024).

What was measured:
Kinetic solubility assay = assay type: physicochemical; settings: kinetic solubility, 50 mM PB (pH 7.4), shaken 24 hours at RT
In short: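 Test compounds from 10 mM DMSO stock were diluted in 50 mM phosphate buffer, pH 7.4, and shaken for 24 h at RT. After PTFE filtration and centrifugation, filtrate concentration was quantified by UPLC-UV/HPLC-UV against a standard curve.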

[1] = tested on: KIT phosphorylation in M-07e cells; test: Cell-based KIT phosphorylation in M-07e cells by pKIT ELISA; parameters: species or system human; settings: SCF stimulation
Experimental: Exemplary compounds were tested for ability to inhibit KIT phosphorylation using M-07e cells as monitored by pKIT ELISA. M-07e cells are also represented as M-07E, M-07e, M07-e, M07e, Mo7e, MO7e, M07E and MO7E. Assay procedures and results are described below.
Part I—Procedures for Determining KIT Inhibition inM-07e Cells Using pKTT ELISA Reagents and consumables: • M-07e cells: Initially obtained from Accegen, cat #ABC-TC1313 • p-cKIT Capture ELISA antibody: anti-Human Phospho-CD117/c-kit, R&D cat #DYC3527-5 • Anti-pY-HIRP antibody: R&D cat #DYC3527-5 • 25× wash buffer: Quantikine ELISA Wash Buffer 1, R&D cat #WA126 • PBS: R&D cat #DY006 • 96 well ELISA plates: Clear Polystyrene Microplates, R&D Cat #DY990 • 96 well Tissue culture plates: Corning® 96 Well TC-Treated Microplates, cat #CLS3894 • RPMI medium: ATCC® RPMI-1640 Medium, Cat #30-2001 • FBS: Fetal Bovine Serum, certified, United States Gibco, Thermo-Fisher 16000044 • GM-CSF: Recombinant Human GM-CSF Protein, R&D cat #215-GM • SCF: Recombinant Human SCF Protein, R&D cat #255-SC
• 1. Prepare cells: • a. Culture M-07e cells in RPMI medium+20% serum+GM-CSF+penstrep • To make 50 mL of growth medium • i. 40 mL RPMI media • ii. 10 mL FBS • iii. 10 uL of GM-CSF (100 ug/mL stock) • iv. 0.5 mL pen strep (100×) • b. Harvest cells • c. Re-suspend cells in 100% RPMI media (without serum) to final concentration of 1 million cells/mL • d. Transfer 100 uL of cell solution to 11 columns of a 96 well flat bottom cell culture plate • e. Incubate cells over night at 37 C • 2. Prepare ELISA Plates: • a. Dilute capture antibody to concentration 4 ug/mL in PBS • b. Coat 96 well microplates with 100 uL of capture antibody • c. Seal plates and incubate at RT overnight • d. Wash plates with 300 uL of wash buffer • e. Repeat wash • f. Treat plates with 300 uL of blocking buffer at RT for 1 hour • 3. Addition of compounds: • a. Prepare compound dilutions in RPMI media • i. Top test concentration is 1 uM • ii. Serially dilute compounds 3× for a total of 8 concentrations • b. Add 10 uL of 10× compound dilutions to cells • i. No compounds added in column 11 (for controls) • c. Incubate cells with compounds for 2 hours at 37 C • d. Stimulate cells with SCF for 5 min at concentration of 100 ng/mL (final) • i. In column 11 stimulate top 4 wells. Leave bottom 4 wells unstimulated • e. Remove cell culture media with multichannel pipet • f. Add 110 uL of Lysis buffer to all wells • g. Incubate plates at RT for 30 min while shaking • 4. Transfer 100 uL of cell lysis to each prepared Elisa plate • 5. Add 100 uL of the standard pc-KIT dilutions to the standard wells in column 12 • a. Top concentration=2000 pg/mL • b. 2× dilutions • 6. Incubate ELISA plate with cell lysate for 2 hours at RT • 7. Wash Plate with wash buffer (wash 1) • 8. Repeat wash (wash 2) • 9. […] Add 100 uL of diluted anti-pY-HRP (1/1000 dilution in detection antibody dilution buffer) and incubate 2 hours at RT • 11. Wash plate with wash buffer (wash 1) • 12. Repeat wash (wash 2) • 13. Repeat wash (wash 3) • 14. Add 100 uL of substrate solution to each well • 15. Incubate plates 20 min • Note: Plate development is indicated by aqua color • 16. Add 50 uL of stop solution to each well • 17. Determine optical density on Bitek Synergy Neo2: • a. Make new experiment
Select absorbance 1 set to 450 nm

[2] = molecular target: T1, BCRP (BCRP-MDCKII monolayer) (Homo sapiens, UniProt Q9UNQ0); test: MDCKII-BCRP bidirectional transport assay; assay type: in vitro ADME; settings: for MDCK-BCRP: Papp A-B: apical to basolateral
T1 construct: host or cells: MDCKII (canine kidney) cells
T1 sequence (Q9UNQ0 1-655): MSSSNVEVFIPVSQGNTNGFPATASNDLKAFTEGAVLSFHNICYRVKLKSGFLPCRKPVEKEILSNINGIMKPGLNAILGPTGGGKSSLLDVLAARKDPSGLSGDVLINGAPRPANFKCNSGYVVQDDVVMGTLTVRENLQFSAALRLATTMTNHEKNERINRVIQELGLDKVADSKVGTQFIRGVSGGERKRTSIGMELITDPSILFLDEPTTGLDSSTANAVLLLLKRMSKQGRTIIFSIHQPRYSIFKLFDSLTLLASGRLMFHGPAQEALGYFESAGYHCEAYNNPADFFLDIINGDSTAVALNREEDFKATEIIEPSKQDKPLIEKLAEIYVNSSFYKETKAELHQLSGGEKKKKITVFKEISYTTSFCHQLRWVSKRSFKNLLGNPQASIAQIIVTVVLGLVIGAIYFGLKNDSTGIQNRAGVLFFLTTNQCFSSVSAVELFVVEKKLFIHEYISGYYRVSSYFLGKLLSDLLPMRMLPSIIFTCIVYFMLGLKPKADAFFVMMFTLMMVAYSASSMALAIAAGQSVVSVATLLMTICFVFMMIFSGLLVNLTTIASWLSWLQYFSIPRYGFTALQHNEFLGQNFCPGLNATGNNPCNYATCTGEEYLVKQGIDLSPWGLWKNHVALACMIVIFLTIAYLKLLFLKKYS
In short: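 Bidirectional A→B and B→A transport across PreadyPort BCRP-MDCKII monolayers (days 12–15) was run in duplicate for 120 min at 37° C, 5% CO2 after a 15 min preincubation. Compound levels were measured by LC-MS/MS. Papp and recovery were calculated, with efflux ratio indicating transporter engagement.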

CSF-1R = molecular target: T2, CSF-1R (Homo sapiens, UniProt P07333); test: Caliper biochemical assay, CSF-1R; settings: Table 6
T2 construct: purchased Invitrogen PV3249 (lot 662393N)
T2 sequence (P07333 20-972): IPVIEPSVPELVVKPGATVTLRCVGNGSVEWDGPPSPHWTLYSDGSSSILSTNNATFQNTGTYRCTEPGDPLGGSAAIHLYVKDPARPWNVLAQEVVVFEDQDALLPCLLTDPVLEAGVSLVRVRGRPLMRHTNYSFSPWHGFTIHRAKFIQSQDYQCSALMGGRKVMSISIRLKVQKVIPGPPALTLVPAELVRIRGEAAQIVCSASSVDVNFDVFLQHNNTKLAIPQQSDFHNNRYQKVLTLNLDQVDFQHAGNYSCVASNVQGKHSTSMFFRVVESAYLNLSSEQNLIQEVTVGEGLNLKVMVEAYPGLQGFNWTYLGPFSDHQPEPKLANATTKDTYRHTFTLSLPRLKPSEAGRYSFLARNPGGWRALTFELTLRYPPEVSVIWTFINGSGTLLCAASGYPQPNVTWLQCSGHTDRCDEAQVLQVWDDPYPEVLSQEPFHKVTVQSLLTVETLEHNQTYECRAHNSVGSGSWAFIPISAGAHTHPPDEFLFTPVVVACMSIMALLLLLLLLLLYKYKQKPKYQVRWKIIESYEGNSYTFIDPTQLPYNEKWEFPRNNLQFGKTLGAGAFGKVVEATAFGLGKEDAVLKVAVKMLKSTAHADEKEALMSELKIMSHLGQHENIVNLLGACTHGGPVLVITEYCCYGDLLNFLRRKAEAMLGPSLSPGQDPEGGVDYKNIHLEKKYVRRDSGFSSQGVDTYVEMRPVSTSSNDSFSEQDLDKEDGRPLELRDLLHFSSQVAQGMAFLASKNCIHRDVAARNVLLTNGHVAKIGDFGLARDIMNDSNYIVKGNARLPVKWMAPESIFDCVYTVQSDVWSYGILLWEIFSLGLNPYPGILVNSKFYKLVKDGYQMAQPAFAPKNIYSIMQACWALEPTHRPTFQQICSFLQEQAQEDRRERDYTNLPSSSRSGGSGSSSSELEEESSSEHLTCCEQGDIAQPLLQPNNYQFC
In short: (§1)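 Kinase, FAM-labelled peptide substrate, ATP and Mn^2+ incubated with compound for 3 h at 25° C, then quenched with EDTA buffer. Substrate and phosphorylated product separated by microfluidic electrophoresis and quantified by fluorescence intensity; no-enzyme wells define 100% inhibition.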

wtKIT [3] = molecular target: T3, wtKIT (Homo sapiens, UniProt P10721); test: Caliper biochemical assay, wtKIT; settings: Table 6, read-out: KIT Biochemical IC50 avg
T3 construct: 1888289AM in the reaction mixtures
T3 sequence (P10721 26-976): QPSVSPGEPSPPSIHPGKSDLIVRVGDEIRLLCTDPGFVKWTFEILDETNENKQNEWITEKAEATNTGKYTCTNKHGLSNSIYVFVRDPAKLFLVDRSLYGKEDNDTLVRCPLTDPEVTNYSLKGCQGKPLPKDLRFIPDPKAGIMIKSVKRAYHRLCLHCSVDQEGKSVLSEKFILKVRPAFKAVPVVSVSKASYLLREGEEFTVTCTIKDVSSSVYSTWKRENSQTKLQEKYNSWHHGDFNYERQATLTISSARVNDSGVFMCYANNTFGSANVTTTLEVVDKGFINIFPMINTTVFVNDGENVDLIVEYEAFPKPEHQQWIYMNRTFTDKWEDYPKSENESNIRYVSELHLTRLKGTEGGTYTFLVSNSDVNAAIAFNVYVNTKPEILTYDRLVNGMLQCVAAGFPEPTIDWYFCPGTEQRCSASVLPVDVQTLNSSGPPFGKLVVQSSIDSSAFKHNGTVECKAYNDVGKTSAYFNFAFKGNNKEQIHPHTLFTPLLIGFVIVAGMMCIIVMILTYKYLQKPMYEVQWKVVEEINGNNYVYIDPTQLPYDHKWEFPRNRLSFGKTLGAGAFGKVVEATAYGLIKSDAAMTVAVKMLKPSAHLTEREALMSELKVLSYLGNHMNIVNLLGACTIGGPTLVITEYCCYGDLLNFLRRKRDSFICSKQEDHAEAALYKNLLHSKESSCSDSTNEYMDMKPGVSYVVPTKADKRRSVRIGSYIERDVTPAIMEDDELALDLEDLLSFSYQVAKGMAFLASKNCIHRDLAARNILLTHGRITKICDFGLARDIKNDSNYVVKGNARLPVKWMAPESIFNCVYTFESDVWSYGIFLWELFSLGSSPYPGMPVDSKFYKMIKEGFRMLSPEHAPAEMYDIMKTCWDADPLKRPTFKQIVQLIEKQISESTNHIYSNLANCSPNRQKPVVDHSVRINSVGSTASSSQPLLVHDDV
In short: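 Enzyme (5.0 nM wtKIT), 1 μM FAM-labelled peptide, 400 μM ATP and 10 mM MnCl2 in HEPES pH 7.5 with 1% DMSO, incubated 3 h at 25° C. EDTA quench; substrate and phosphoproduct separated by microfluidic electrophoresis and quantified by fluorescence.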

PDGFRα = molecular target: T4, PDGFRα (Homo sapiens, UniProt P16234); test: Caliper biochemical assay, PDGFRα; settings: Table 6
T4 construct: purchased Millipore 14-467 (lot 26321_ACTI)
T4 sequence (P16234 24-1089): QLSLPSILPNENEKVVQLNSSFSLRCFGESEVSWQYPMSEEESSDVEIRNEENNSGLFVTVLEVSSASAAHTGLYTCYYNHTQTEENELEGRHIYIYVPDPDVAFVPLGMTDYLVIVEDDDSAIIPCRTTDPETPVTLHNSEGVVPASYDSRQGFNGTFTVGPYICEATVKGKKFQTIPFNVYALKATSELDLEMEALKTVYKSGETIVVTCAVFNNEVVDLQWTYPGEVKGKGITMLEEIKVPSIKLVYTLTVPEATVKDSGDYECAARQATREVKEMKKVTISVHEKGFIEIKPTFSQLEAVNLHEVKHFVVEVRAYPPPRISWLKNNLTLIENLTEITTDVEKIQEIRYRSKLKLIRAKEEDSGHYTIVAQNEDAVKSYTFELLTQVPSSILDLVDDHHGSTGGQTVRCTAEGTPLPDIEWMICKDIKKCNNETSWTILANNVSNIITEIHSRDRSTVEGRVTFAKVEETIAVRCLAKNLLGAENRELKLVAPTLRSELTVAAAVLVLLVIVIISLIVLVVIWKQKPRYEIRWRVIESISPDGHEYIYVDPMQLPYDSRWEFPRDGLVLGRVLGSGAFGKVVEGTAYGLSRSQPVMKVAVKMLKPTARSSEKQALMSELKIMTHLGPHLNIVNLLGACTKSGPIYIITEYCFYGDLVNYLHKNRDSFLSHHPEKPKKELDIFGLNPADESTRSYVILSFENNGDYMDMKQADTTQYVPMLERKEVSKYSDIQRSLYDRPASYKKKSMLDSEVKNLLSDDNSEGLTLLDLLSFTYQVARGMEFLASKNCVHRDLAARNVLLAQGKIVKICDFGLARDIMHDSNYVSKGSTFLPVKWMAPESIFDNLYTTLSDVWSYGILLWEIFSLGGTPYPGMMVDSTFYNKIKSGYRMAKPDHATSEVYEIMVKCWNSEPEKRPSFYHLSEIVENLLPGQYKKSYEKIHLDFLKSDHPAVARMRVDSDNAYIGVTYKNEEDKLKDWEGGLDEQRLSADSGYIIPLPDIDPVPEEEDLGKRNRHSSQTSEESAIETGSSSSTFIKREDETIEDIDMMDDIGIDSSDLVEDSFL
In short: as §1

wtKIT [4] = molecular target: T3, wtKIT; test: HTRF biochemical assay, wtKIT (phosphorylation of a peptide substrate); settings: Table 4
In short: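 wtKIT (5.0 nM) phosphorylating 1 µM FAM-labelled peptide with 400 µM ATP and 10 mM MnCl2 in 100 mM HEPES pH 7.5, 1% DMSO, 3 h at 25 °C. EDTA quench; phosphopeptide detected with anti-phosphotyrosine antibody by HTRF. Enzyme titrated for 10-20% substrate conversion.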

Row | Compound | Solubility (μM) (Kinetic solubility assay) | IC50 [1] [nM] | MDCK-BCRP: Efflux Ratio [2] | MDCK-BCRP: Papp A-B [2] | IC50 (CSF-1R) [nM] | IC50 (wtKIT [3]) [nM] | IC50 (PDGFRα) [nM] | IC50 (wtKIT [4]) [nM]
1 | Cc1ccc(-c2noc(C[C@H](C)O)n2)cc1NC(=O)c1cnc2cc(C(F)F)ccn12 [Compound I-82] | **** (a solubility less than or equal to 2 μM) | 50 to 500 |  |  |  |  |  | 
2 | Cc1ccc(-c2noc(C[C@@H](C)O)n2)cc1NC(=O)c1cnc2cc(C(F)F)ccn12 [Compound I-83] | **** (a solubility less than or equal to 2 μM) | ≤ 50 | 25.3 | 0.96 10^−6 cm/s |  |  |  | 
3 | Cc1ccc(-c2noc(C3CC3(C)C)n2)cc1NC(=O)c1cnc2ccccn12 (stereo not drawn) [Compound I-127] |  | ≤ 50 |  |  | ≤ 50 | ≤ 50 | 50 to 500 | 
4 | COCc1ccn2c(C(=O)Nc3cc(-c4noc(C5CN(C(=O)OC)C5)n4)ccc3C)cnc2c1 [Compound I-140] | *** (a solubility greater than 2 μM and less than or equal to 10 μM) | 50 to 500 |  |  | 50 to 500 | ≤ 50 | 5000 to 30000 | 
5 | Cc1ccc(-c2noc([C@@H]3CCN3S(=O)(=O)c3cn(C)cn3)n2)cc1NC(=O)c1cnc2ccccn12 [Compound I-184] | **** (a solubility less than or equal to 2 μM) | 500 to 5000 |  |  | 50 to 500 | ≤ 50 | 500 to 5000 | 
6 | Cc1ccc(-c2noc([C@@H]3CCN3S(=O)(=O)c3cccnc3)n2)cc1NC(=O)c1cnc2ccccn12 [Compound I-185] | **** (a solubility less than or equal to 2 μM) | ≤ 50 |  |  | ≤ 50 | ≤ 50 | 50 to 500 | 
7 | COC(=O)N1CC(c2nc(-c3ccc(C#N)c(NC(=O)c4cnc5ccccn45)c3)no2)C1 [Compound I-212] | *** (a solubility greater than 2 μM and less than or equal to 10 μM) | 50 to 500 |  |  |  | 50 to 500 |  | 50 to 500
8 | Cc1ccc(-c2noc(N3CCC(F)(F)CC3)n2)cc1NC(=O)c1cnc2ccccn12 [Compound I-214] | *** (a solubility greater than 2 μM and less than or equal to 10 μM) | 50 to 500 |  |  |  | ≤ 50 |  | 50 to 500
9 | Cc1nc(-c2ccc(C)c(NC(=O)c3cnc4ccc(N)cn34)c2)no1 [Compound I-219] | *** (a solubility greater than 2 μM and less than or equal to 10 μM) |  | 37 | 0.79 10^−6 cm/s | 50 to 500 | ≤ 50 | 500 to 5000 | ≤ 50
10 | O=C(Nc1cc(-c2noc([C@@H]3CC(F)(F)CN3)n2)ccc1Cl)c1cnc2ccccn12 [Compound I-221] | **** (a solubility less than or equal to 2 μM) | 50 to 500 |  |  | 50 to 500 | ≤ 50 | 5000 to 30000 | 50 to 500
11 | COC(=O)N1CC(c2nc(-c3ccc(C)c(NC(=O)c4cnc5cc(OC(C)(C)CO)ccn45)c3)no2)C1 [Compound I-228] | ** (a solubility greater than 10 μM and less than or equal to 50 μM) |  | 22.9 | 1.08 10^−6 cm/s | ≤ 50 | ≤ 50 | 50 to 500 | 50 to 500
12 | Cc1ccc(-c2noc([C@@H]3CC4(CC4)CN3)n2)cc1NC(=O)c1cnc2ccccn12 [Compound I-230] | ** (a solubility greater than 10 μM and less than or equal to 50 μM) | ≤ 50 |  |  | ≤ 50 | ≤ 50 | 50 to 500 | ≤ 50
13 | CCCS(=O)(=O)N1CCC1c1nc(-c2ccc(C)c(NC(=O)c3cnc4ccccn34)c2)no1 (stereo not drawn) [Compound I-242] | *** (a solubility greater than 2 μM and less than or equal to 10 μM) | 50 to 500 |  |  |  | ≤ 50 |  | ≤ 50
14 | COC(=O)N1CC(c2nc(-c3ccc(C)c(NC(=O)c4cnc5cc(OCCO)ccn45)c3)no2)C1 [Compound I-264] | ** (a solubility greater than 10 μM and less than or equal to 50 μM) |  | 24.2 | 0.71 10^−6 cm/s | ≤ 50 | ≤ 50 | 50 to 500 | ≤ 50
15 | COC(=O)N1CC(c2nc(-c3ccc(C)c(NC(=O)c4cnn5ccc(C#N)cc45)c3)no2)C1 [Compound I-265] | ** (a solubility greater than 10 μM and less than or equal to 50 μM) |  | 19.4 | 1 10^−6 cm/s | 5000 to 30000 | 50 to 500 | 5000 to 30000 | 50 to 500
16 | Cc1nc(-c2ccc(C)c(NC(=O)c3cnn4ccccc34)c2)no1 [Compound I-428] |  | ≤ 50 |  |  | 500 to 5000 | ≤ 50 | 500 to 5000 | 
